IC50 data for 25 compounds are collected here from ChEMBL document CHEMBL1147461, “Exploration of the P2-P3 SAR of aldehyde cathepsin K inhibitors” (Bioorg Med Chem Lett, 2004).

As usually defined, the IC50 is the midpoint of a concentration-inhibition curve.

One experiment concerns the target T1, Cathepsin K (Homo sapiens, UniProt P43235).
T1 sequence (P43235 whole entry): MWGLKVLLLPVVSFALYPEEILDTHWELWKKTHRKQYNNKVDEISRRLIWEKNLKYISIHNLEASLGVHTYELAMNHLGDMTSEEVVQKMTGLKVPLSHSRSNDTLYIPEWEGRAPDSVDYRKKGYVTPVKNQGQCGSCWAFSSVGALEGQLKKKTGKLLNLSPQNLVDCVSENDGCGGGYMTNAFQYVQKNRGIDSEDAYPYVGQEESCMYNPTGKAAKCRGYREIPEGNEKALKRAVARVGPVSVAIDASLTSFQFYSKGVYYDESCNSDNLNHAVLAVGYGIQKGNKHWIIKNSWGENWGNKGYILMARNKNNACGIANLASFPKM
In words: Inhibitory concentration against recombinant human cathepsin K determined in a fluorescence assay using 10 uM Cbz-Phe-Arg-AMC as substrate.

The target of another experiment is Procathepsin L (Homo sapiens, UniProt P07711). In words: Inhibitory concentration against recombinant human cathepsin L was determined in a fluorescence assay using 5 uM Cbz-Phe-Arg-AMC as substrate.
Chain of Procathepsin L (P07711 whole entry): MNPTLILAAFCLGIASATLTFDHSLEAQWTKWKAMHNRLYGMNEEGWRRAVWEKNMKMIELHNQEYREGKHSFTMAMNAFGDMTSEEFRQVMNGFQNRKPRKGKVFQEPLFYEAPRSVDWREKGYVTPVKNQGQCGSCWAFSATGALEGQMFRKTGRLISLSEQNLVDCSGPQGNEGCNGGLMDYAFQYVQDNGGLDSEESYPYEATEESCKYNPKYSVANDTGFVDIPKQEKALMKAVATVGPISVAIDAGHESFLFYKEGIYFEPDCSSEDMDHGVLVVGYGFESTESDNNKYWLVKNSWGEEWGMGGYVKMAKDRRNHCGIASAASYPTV
The next experiment deals with Cathepsin B (Homo sapiens, UniProt P07858). In words: Inhibitory concentration against recombinant human cathepsin B was determined in a fluorescence assay using 10 uM Cbz-Phe-Arg-AMC as substrate.

Regarding `CCCC[C@@H](C=O)NC(=O)OC(CCC)CCC`, the IC50 on Cathepsin K turned out to be 0.87 nM.

Consider `CCCC[C@@H](C=O)NC(=O)O[C@@H](C)CC1CCCCC1`, for which the IC50 at Procathepsin L was determined as 270 nM; on Cathepsin B, 400 nM; on Cathepsin K, 2.7 nM.

As to `CCCC[C@@H](C=O)NC(=O)OCCc1ccccc1`, the IC50 at Cathepsin K is 270 nM.

`CCCC[C@@H](C=O)NC(=O)OC(C(C)C)C(C)C`: the IC50 at Cathepsin K came to 0.56 nM.

As to `CCCC[C@@H](C=O)NC(=O)OC(CC(C)C)CC(C)C`, the IC50 at Cathepsin K is 1.1 nM.

For `CCCC[C@@H](C=O)NC(=O)OC(C)(C)Cc1ccccc1Cl`, the IC50 on Cathepsin K is 3.1 nM.

Turning to `CCCC[C@@H](C=O)NC(=O)O[C@@H](CCC)Cc1ccccc1`, on Cathepsin K, the IC50 was determined as 1.5 nM.

As for `CCCC[C@@H](C=O)NC(=O)O[C@@H](CC)Cc1ccccc1`, the 50% inhibitory concentration (IC50) on Procathepsin L was 15 nM; at Cathepsin B, 72 nM; on Cathepsin K it was 0.13 nM.

As for `CCCC[C@@H](C=O)NC(=O)OC1(Cc2ccccc2)CCC1`, the results for the IC50 at Procathepsin L, at Cathepsin B and on Cathepsin K were 1200 nM, 3400 nM and 2.4 nM, respectively.

For `CCCC[C@@H](C=O)NC(=O)OC(Cc1ccccc1)Cc1ccccc1`, at Cathepsin K, the IC50 was found to be 71 nM.

Consider `CCCC[C@@H](C=O)NC(=O)OCc1ccccc1`, for which the 50% inhibitory concentration (IC50) on Cathepsin K stood at 540 nM.

Take `CCCC[C@@H](C=O)NC(=O)O[C@H](Cc1ccccc1)CC(C)C`: at Cathepsin K, the IC50 is 6.5 nM.

In the case of `CCCC[C@@H](C=O)NC(=O)O[C@H](C)Cc1ccccc1`, the IC50 on Cathepsin K turned out to be 100 nM.

Turning to `CCCC[C@@H](C=O)NC(=O)OC1(Cc2ccccc2)CCCC1`, the IC50 on Procathepsin L was 2000 nM; on Cathepsin B, 810 nM.

Regarding `CCCC[C@@H](C=O)NC(=O)OC(C)(C)Cc1cccc(OC)c1`, the IC50 at Cathepsin K was determined as 5.4 nM.

Consider `CCCC[C@@H](C=O)NC(=O)OC(CC)(CC)Cc1ccccc1`, for which the results for the IC50 at Procathepsin L, at Cathepsin B and on Cathepsin K were 110 nM, 2200 nM and 2.1 nM, respectively.

In the case of `CCCC[C@@H](C=O)NC(=O)OC(C)(C)Cc1cccc(-c2ccsc2)c1`, the 50% inhibitory concentration (IC50) on Cathepsin K came to 7.6 nM.

Take `CCCC[C@@H](C=O)NC(=O)OC(CC)CC`: the IC50 on Cathepsin K was determined as 4 nM.

On to `CCCC[C@@H](C=O)NC(=O)OC(C)(C)Cc1ccc(Cl)cc1`, for which, on Cathepsin K, the IC50 was determined as 4.6 nM.

Consider `CCCC[C@@H](C=O)NC(=O)OC(C)(C)Cc1ccccc1`, for which the IC50 on Cathepsin K turned out to be 12 nM.

With `CCCC[C@@H](C=O)NC(=O)O[C@@H](C)Cc1ccccc1`, the IC50 amounted to 740 nM at Procathepsin L, 460 nM on Cathepsin B and 1.8 nM on Cathepsin K.

Turning to `CCCC[C@@H](C=O)NC(=O)OC(C)(C(C)C)C(C)C`, the IC50 at Cathepsin K was 4.7 nM.

On to `CCCC[C@@H](C=O)NC(=O)OC(C)(C)Cc1ccc(OC)cc1`, for which, at Cathepsin K, the IC50 was 2.9 nM.

Turning to `CCCC[C@@H](C=O)NC(=O)OCCCc1ccccc1`, the IC50 at Cathepsin K was found to be 600 nM.

Consider `CCCC[C@@H](C=O)NC(=O)OC1(Cc2ccccc2)CCCCC1`, for which the concentration for half-maximal inhibition (IC50) at Procathepsin L turned out to be 8500 nM; on Cathepsin B, 12000 nM; at Cathepsin K, 2 nM.
